Assay results: paper PMC3816736 (Biochemical pharmacology, 2013)

Key:
xanthine oxidase (XO) [1] = target: T1, xanthine oxidase (XO) (Bos taurus, UniProt P80457); test: spectrophotometric uric acid formation at […] nm, […] compound; assay type: biochemical
xanthine oxidase (XO) [2] = target: T1, xanthine oxidase (XO); test: spectrophotometric uric acid formation at […] nm; assay type: biochemical

T1 sequence (P80457 2-1332): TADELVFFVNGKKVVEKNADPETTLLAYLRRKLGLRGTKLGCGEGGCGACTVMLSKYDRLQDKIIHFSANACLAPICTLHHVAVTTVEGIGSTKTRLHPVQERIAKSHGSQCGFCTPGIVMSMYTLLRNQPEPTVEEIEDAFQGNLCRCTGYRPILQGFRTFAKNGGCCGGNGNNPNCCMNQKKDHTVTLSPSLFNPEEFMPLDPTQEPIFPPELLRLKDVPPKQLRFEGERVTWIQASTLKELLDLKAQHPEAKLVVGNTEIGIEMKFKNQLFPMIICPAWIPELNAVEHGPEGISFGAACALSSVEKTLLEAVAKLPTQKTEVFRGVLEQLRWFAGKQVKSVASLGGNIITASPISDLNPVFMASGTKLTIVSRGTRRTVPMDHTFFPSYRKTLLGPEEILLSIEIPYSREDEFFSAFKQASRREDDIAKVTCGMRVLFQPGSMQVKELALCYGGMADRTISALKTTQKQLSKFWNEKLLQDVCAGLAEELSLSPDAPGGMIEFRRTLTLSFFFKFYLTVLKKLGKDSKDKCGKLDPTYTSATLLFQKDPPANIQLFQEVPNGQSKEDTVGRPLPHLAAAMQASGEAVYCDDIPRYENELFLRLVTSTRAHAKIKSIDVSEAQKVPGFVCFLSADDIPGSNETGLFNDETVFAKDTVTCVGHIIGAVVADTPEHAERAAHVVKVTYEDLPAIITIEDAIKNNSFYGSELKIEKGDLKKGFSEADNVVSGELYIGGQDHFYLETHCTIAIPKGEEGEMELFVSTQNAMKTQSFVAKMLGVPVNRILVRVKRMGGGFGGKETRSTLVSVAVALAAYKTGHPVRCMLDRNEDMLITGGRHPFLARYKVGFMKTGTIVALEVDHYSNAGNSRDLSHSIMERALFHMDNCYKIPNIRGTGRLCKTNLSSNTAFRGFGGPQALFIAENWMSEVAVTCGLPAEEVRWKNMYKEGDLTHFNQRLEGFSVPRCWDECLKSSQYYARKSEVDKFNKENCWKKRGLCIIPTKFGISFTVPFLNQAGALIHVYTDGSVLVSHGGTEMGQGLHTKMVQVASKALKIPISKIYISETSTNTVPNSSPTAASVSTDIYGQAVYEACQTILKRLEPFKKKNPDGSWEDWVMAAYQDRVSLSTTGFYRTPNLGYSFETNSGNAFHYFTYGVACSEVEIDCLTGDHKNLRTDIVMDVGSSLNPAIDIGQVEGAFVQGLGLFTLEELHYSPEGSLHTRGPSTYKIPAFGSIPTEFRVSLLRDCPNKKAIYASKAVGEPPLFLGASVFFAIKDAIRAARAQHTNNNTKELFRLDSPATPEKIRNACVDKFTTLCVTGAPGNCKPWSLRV

Row | IC50 (xanthine oxidase (XO) [2]) | SMILES | spectrophotometric uric acid formation at 295 nm, 20 μM compound (xanthine oxidase (XO) [1])
1 | – | O=Cc1ccc(O)c(O)c1 [DHB-CHO, 3,4-dihydroxybenzaldehyde] | −CHO group such as DHNB, DH6NB, DHB-CHO and THB-CHO had an inhibitory effect on XO
2 | > 80 µM | O=Cc1cc(O)c(O)c(O)c1 [THB-CHO, 3,4,5-trihydroxybenzaldehyde] | –
3 | 76 µM | OCc1ccc(O)c(O)c1 [DHBA, 3,4-dihydroxybenzyl alcohol] | –
